Data: patent publication US6781033B2, “Method for the transformation of plant cell plastids” (Monsanto Technology LLC, priority 2000, dated 2004)

What was measured:
[1] = tested on: wild-type plant cell plastids of tobacco leaf tissue; test: Electron microscopic analysis of plastid ultrastructure in tobacco leaf tissue cultured on drug-containing medium; type: cell-based, Nicotiana tabacum cv Petit Havana
Experimental: (§1) Wild-type plants of Nicotiana tabacum cv Petit Havana were propagated in sterile hormone free MS medium (Murashige and Skoog (1962) Physiol. Plant. 15,473-497) supplemented with B5 vitamins in Phytatrays or sundae cups with a 16-hour photoperiod at 24° C. Leaf sections were aseptically removed and placed into new plant regeneration medium containing various concentrations of glyphosate, spectinomycin and phospinothricin. The leaf material was collected at 1-week and 4-week time points and prepared for electron microscopic observation of plastid ultrastructure. As a control, wild-type leaf sections were exposed to the initially plastid non-lethal antibiotic, spectinomycin, under identical conditions, or to medium without any drug.
Cultured tobacco leaf pieces 1 mm^2 were fixed in 4% glutaraldehyde in 0.1 M sodium cacodylate buffer, pH 7.2 for 3 hours, with the first 30 minutes under vacuum. The tissue was further fixed in 1% osmium tetroxide in the above buffer for 90 minutes and stained with 1% aqueous uranyl acetate for 2 hours. Ethanol and propylene oxide were used to dehydrate the tissue prior to infiltration with a 1:1 mixture of Spurr's:EMbed 812 resin. The resin was polymerized at 60° C. for 48 hours. The resulting blocks were sectioned on a Leica Ultracut E microtome. Sections 80 nm thick were picked up on formvar/carbon-coated copper slot grids. The grids were stained with uranyl acetate and lead citrate in a LKB Ultrastainer and examined with a JEOL 1200 transmission electron microscope. All reagents were obtained from Electron Microscopy Sciences, Fort Washington, Pa.
Tobacco leaf tissue was also analyzed on medium containing lower concentrations of glyphosate. […] Cultured tissue was prepared for electron microscopy as described above.
To test the general effect of herbicides on plastid morphology, we examined tobacco leaf cultures that were grown in the presence of phosphinothricin (PPT, active ingredient in BASTA herbicide) at 4 mg/L, the concentration normally used for nuclear transformation. Leaves from healthy, tobacco plants at the same developmental stage were cut into about 5 mm×5 mm sections and placed on MS/B5 medium with 3% sucrose, 1 mg/L BAP, 0.1 mg/L NAA and 4 mg/L phosphinothricin for the 3, 7 or 12 days. The leaf sections were then fixed and processed for TEM analysis.

[2] = tested on: tobacco leaf plant cultures; test: Visual appearance of tobacco leaf cultures on drug-containing medium; type: cell-based, Nicotiana tabacum cv Petit Havana
Experimental: as §1

[3] = tested on: bombarded tobacco leaf explants; test: Direct selection of bombarded tobacco leaf explants on lethal level of PPT; type: cell-based, Nicotiana tabacum cv. Havana; conditions: 4 mg/L PPT, leaves bombarded with pMON53159
Experimental: Dark green, round leaves are cut, preferably from the middle of the shoots, from 3-6 week old Nicotiana tabacum cv. Havana that have been maintained in vitro on hormone-free MS medium (Murashige and Skoog, (1962) Physiol Plant. 15, 473-497) supplemented with B5 vitamins in Phytatrays or sundae cups with a 16-hour photoperiod at 24° C. Each cut leaf is then placed adaxial side up on sterile filter paper over tobacco shoot regeneration medium (TSO medium: MS salts, 1 mg/L N^6-benzyladenine, 0.1 mg/L 1-naphthaleneacetic acid, 1 mg/L thiamine, 100 mg/L inositol, 7 g/L agar pH 5.8 and 30 g/L sucrose). Leaves are preferably placed in the center of the plate with as much contact with the medium as possible. The plates are preferably prepared immediately prior to use but may be prepared up to a day before transformation by particle bombardment by wrapping in plastic bags and storing at 24° C. overnight.
Plates containing the leaf samples are placed on the second shelf from the bottom of the vacuum chamber and bombarded using the 1100 p.s.i. rupture disk. After bombardment, petri plates containing the leaf samples are wrapped in plastic bags and incubated at 24° C. for 48 hours as a delay period prior to phase one culturing.
Direct selection of phosphinothricin (PPT) resistant transformants on lethal levels of PPT using plasmid pMON53159 carrying the bar gene alone were unsuccessful. […]

Structure (SMILES) | plastid ultrastructure (TEM) ([1]; 500 mg/L spectinomycin, four weeks) | plastid ultrastructure (TEM) ([1]; 500 mg/L spectinomycin, one week) | visual effect on plant cultures ([2]; after 1 week) | visual effect on plant cultures ([2]; after 4 weeks, spectinomycin) | plastid ultrastructure (TEM) ([1]; 4 mg/L phosphinothricin, 3 days) | plastid ultrastructure (TEM) ([1]; 4 mg/L phosphinothricin, 7 days) | plastid ultrastructure (TEM) ([1]; 4 mg/L phosphinothricin, 12 days) | appearance of explants under direct selection [3] | plastoglobuli diameter ([1]; 1 μM glyphosate, 7 days) | plastid ultrastructure (TEM) ([1]; 1 μM glyphosate, 7 days, TSO medium) | plastid ultrastructure (TEM) ([1]; 5 μM glyphosate, 7 days) | plastid ultrastructure (TEM) ([1]; 10 μM glyphosate, 7 days) | plastid ultrastructure (TEM) ([1]; 20 μM glyphosate, 3 days) | plastid ultrastructure (TEM) ([1]; 20 μM glyphosate, 7 days) | plastid ultrastructure (TEM) ([1]; 50 μM glyphosate, four weeks) | plastid ultrastructure (TEM) ([1]; 50 μM glyphosate, one week) | plastid ultrastructure (TEM) ([1]; 200 μM glyphosate, four weeks) | plastid ultrastructure (TEM) ([1]; 200 μM glyphosate, one week) | visual effect on plant cultures ([2]; after 4 weeks, lower concentrations of glyphosate)
CN[C@@H]1[C@H](O)[C@H](NC)[C@H]2O[C@@]3(O)C(=O)C[C@@H](C)O[C@H]3O[C@@H]2[C@H]1O [spectinomycin] | plastids internal membranes have broken down almost completely and become vacuolated | plastids look relatively normal | minimal effect on plant cultures visually | tissue is completely bleached | – | – | – | – | – | – | – | – | – | – | – | – | – | – | –
CP(=O)(O)CC[C@H](N)C(=O)O [PPT, phosphinothricin] | – | – | – | – | Thylakoid membranes are completely absent | even more dramatic, with oil bodies accumulated in the organelles | even more dramatic, with oil bodies accumulated in the organelles | bleached and demonstrated little or no cell expansion | – | – | – | – | – | – | – | – | – | – | –
O=C(O)CNCP(=O)(O)O [glyphosate] | – | – | minimal effect visually on plant cultures | – | – | – | – | – | approximately 0.25 μm | typical morphology of metabolically active photosynthetic plastids | normal in appearance | normal in appearance | chloroplasts are beginning to show morphological damage | thylakoid membrane system is severely damaged | plastids appear to have recovered or adapted to some degree | reticulate network of thylakoid membranes has disappeared | completely devoid of internal structure | damage to plastid structure is occurring rapidly | begin to form shoot primordia indicating recovery of the tissue
